Laboratory results: article PMC3284447, “In vivo antinociception of potent mu opioid agonist tetrapeptide analogues and comparison with a compact opioid agonist - neurokinin 1 receptor antagonist chimera” (Molecular Brain, 2012)
“Also recorded” adds a separate entry of the source. Read-outs that look alike come from different tables or passages of the source. Square brackets hold non-standard residues; d marks the D form. Dmt = Cc1cc(O)cc(C)c1C[C@H](N)C(=O)O; dNMeA = CN[C@H](C)C(=O)O; Sar = CNCC(=O)O

What was measured:
male C57Bl6 mice [1] = experiment: hot water tail-flick test, tolerance after daily i.v. administration for 5 days; format: in vivo, mouse; conditions: for tolerance development after repetitive administration: daily for 5 days, i.v. (morphine i.p.), measured on day 5; for %MPE: ± SEM of 7-10 animals
Method: (§1) Nociceptive responses to thermally-induced pain were assessed by the hot water tail-flick test using male C57Bl6 mice. Animals (weighing 25-28 g) were maintained on a normal light-dark cycle and testing occurred during the light cycle. Mice were injected intravenously (i.v.) with the examined drug, dissolved in saline, at different doses. For the verification of drug-induced antinociceptive tolerance, the investigated compounds were administered (i.v.) once per day for 5 days (2 and 4 mg/kg for SBCHM01 and 4 mg/kg for both AN81 and BVD03) and the analgesic effect was measured on the first and the fifth day of the experiment. In each case (both acute and chronic treatment) the effect was measured over a minimum time period of 120 minutes. The antinociceptive effect was measured in triplicate at the following time points post-injection: 5, 15, 30, 60, 120 min (and 180 min for SBCHM01; due to the strong and long-lasting analgesic effect produced by AN81 (Figure 2C), there was no possibility to prolong the experiment, which - if prolonged - could in consequence cause major damage to the animal's tail, thus giving spurious nociceptive responses). Responses to thermal hot stimulus were assessed by the latency with which the mouse removed its tail from 55°C water. A cut-off time of 10 s was used in order to prevent tissue damage.
(§2) In order to compare the antinociceptive effect induced by the examined drugs, morphine was used as a standard reference.
(§3) Data are presented as means ± standard errors of the mean (SEM). All of the calculations and statistical analysis were performed using Prism 5.0 (Graph Pad Software, San Diego, CA, USA). The nociceptive scores were analyzed using a two-way Anova with Bonferroni's post hoc test. The p value (the value of probability) as well as inferential statistics - F test, which include information about the obtained magnitude or value of the test statistic and degrees of freedom, are represented.

male CD1 mice = experiment: radiant heat tail-flick test after s.c. administration; format: in vivo, mouse
Method: as §2
In order to determine the duration of drug activity, s.c. drug administration into male CD1 mice (27-33 g; Charles River Laboratories, Sulzfeld, Germany) was performed. In addition to a thermal nociceptive stimulus, the alternative light beam-based tail-flick assay was performed using an UB 37360 Ugo Basile analgesiometer (Ugo Basile s.r.l., Varese, Italy). The reaction time required by the mouse to remove its tail due to the radiant heat was measured and defined as the tail-flick latency. A cut-off time of 10 s was used in order to minimize tissue damage. Tail-flick latencies were measured before (baseline) and after drug s.c. administration (30 min, 1 h, 2 h, 3 h, 4 h, 5 h, 6 h and 7 h), the antinociceptive effect was scored as a percentage of the maximal possible effect (% MPE), according to formula presented above. Drugs were dissolved in sterile physiological saline (0.9%) and were administered s.c. in a volume of 10 μl per 1 g body weight. The animal procedures were approved by the Austrian Ethical Committee on Animal Care and Use in line with international laws and policies.
as §3

MOR [2] = target: MOR; parameters: method as in PMID 21413804; conditions: [^3H]DAMGO, rat brain membrane; cited from earlier work
MOR [3] = system: MOR; parameters: method as in PMID 21413804; conditions: GPI tissue bioassay; means of 3-6 experiments ± SEM; cited from earlier work
DOR [4] = target: DOR; parameters: method as in PMID 21413804; conditions: [^3H]DSLET, rat brain membrane; cited from earlier work
KOR = conditions: cited from earlier work
Source text: Table 1 In vitro functional activities and affinities of opioid- and opioid-NK1 ligands | column: KOR Ki (nM)^e, f

male C57Bl6 mice [5] = experiment: hot water tail-flick test, acute antinociception after i.v. administration; format: in vivo, mouse; conditions: for analgesic effect compared with morphine: morphine 4 mg/kg i.p.
Method: as §1, §2, §3

DOR [6] = system: DOR; parameters: method as in PMID 21413804; conditions: MVD tissue bioassay; means of 3-6 experiments ± SEM; cited from earlier work
MOR/DOR = conditions: cited from earlier work
Source text: (§4) The structure differs from BVD03 only in the amide nitrogen N-methyl group and side chain of the second residue in the peptide sequence (Figure 1). When an activity comparison is made between the two ...

[7] = cited from earlier work
Source text: as §4

DOR [8] = conditions: forskolin-stimulated cAMP accumulation, agonist; cited from earlier work
Source text: (§5) Table 1 In vitro functional activities and affinities of opioid- and opioid-NK1 ligands | column: DOR EC50 (nM)^c, d || The potent antinociceptive effects of the investigated structures after peripheral administration indicate that all four peptidic compounds are able to cross the BBB. […] The observed effects are in agreement with earlier in vitro binding data obtained for these peptides (BVD02 ...

MOR [9] = conditions: forskolin-stimulated cAMP accumulation, agonist; cited from earlier work
Source text: as §5, with “MOR” for “DOR”

MOR [10] = experiment: MOR binding, displacement of [^3H]diprenorphine in HEK293 cells; conditions: BVD03 in comparison to BVD02, Ki
DOR [11] = experiment: DOR binding, displacement of [^3H]diprenorphine in HEK293 cells; conditions: BVD03 in comparison to BVD02, Ki
MOR [12] = conditions: [^3H]diprenorphine, HEK293 cells stably expressing MOR; cited from earlier work
Source text: as §5, with “MOR Ki (nM)^e, f” for “DOR EC50 (nM)^c, d”

MOR [13] = experiment: forskolin-stimulated cAMP accumulation, MOR agonism; format: cell-based; conditions: BVD03 in comparison to BVD02, EC50 cAMP
DOR [14] = conditions: [^3H]diprenorphine, HEK293 cells stably expressing DOR; cited from earlier work
Source text: as §5, with “Ki (nM)^e, f” for “EC50 (nM)^c, d”

[15] = system: male, Sprague-Dawley rats; conditions: TY005, rats; i.t. administration, paw withdrawal test; cited from earlier work
Source text: Recently, Vanderah and coworkers reported the detailed in vivo evaluation of H-Tyr-D-Ala-Gly-Phe-Met-Pro-Leu-Trp-O-3',5'-Bn(CF3)2 (TY005) in several animal assays to define the role of this compound in thermal and tactile stimuli in uninjured, sham- and nerve-injured male, Sprague-Dawley rats. They observed that this compound was able to exert the desired dual activity in vivo. […] This is in contrast to the current study, where the hot water tail-flick assay served as a model for acute pain and in which the drug was injected intravenously. […] For a general clinical applicability, an important goal in pain research consists of the discovery and development of improved analgesic drugs which could be admi ...

[16] = i.v., 1 mg/kg, 30 min, ± SEM of 6-10 mice, p > 0.05 vs morphine
[17] = [^3H]diprenorphine, HEK293 cells stably expressing KOR
[18] = i.v., 0.5 mg/kg, 60 min, ± SEM of 6-10 mice, p > 0.05 vs morphine

Molecule: CN1CC[C@]23c4c5ccc(O)c4O[C@H]2[C@@H](O)C=C[C@H]3[C@H]1C5 [morphine, reference compound]
- tolerance development after repetitive administration (male C57Bl6 mice [1]): mice had developed opioid-induced tolerance
- potency at 180 min (male C57Bl6 mice [1]; day 1, SBCHM01 2 mg/kg i.v., morphine 4 mg/kg i.p.): decrease in potency is clearly visible
- duration of analgesia (male CD1 mice; morphine s.c., more elevated doses relative to AN81): activity drops rapidly over time; also recorded: lost almost all activity over a time period of 2 hours

Molecule: H-Dmt-D-Arg-Aba-Gly-NH2 [AN81]
- Ki (MOR [2]): 0.00015 ± 2e-05 µM
- EC50 (MOR [3]): 0.00032 ± 4e-05 µM
- tolerance compared to morphine (male C57Bl6 mice [1]; 5 days repetitive administration): markedly lower
- tolerance development after repetitive administration (male C57Bl6 mice [1]): leads to the development of tolerance; also recorded: partial preservation of analgesia observed after repetitive administration; also recorded: appeared to still induce the development of tolerance
- %MPE (male C57Bl6 mice [1]; day 5, i.v., 4 mg/kg daily, last time point (120 min), p < 0.001): 15.83% ± 4.40
- Ki (DOR [4]): 0.0006 ± 7e-05 µM
- duration of antinociception (male CD1 mice; abstract: very low doses (0.1 mg/kg)): up to 7 hours
- %MPE (male CD1 mice; s.c., 1 mg/kg, 7 h, ± SEM of 5-6 mice): 38.4 ± 7.8%
- time of peak antinociception (male CD1 mice; s.c., 0.2, 0.5 and 1 mg/kg, 5-6 mice): 1 h
- duration of analgesia (male CD1 mice; s.c., 1, 0.5 and 0.2 mg/kg): up to 7 hours
- Ki (KOR; [^3H]U69,593, guinea pig brain membrane): 0.118 ± 0.012 µM
- overall analgesic effect after systemic administration (male C57Bl6 mice [5]; compared among the peptides of the study): strongest analgesic effect
- analgesic effect compared with morphine (male C57Bl6 mice [5]; i.v., 0.1 mg/kg, 15 min and 120 min): significantly lower analgesic effect
- %MPE (male C57Bl6 mice [5]; i.v., 0.1 mg/kg, 2 h, ± SEM of 6-10 mice, p < 0.05 vs morphine): 61.2 ± 6.45%
- %MPE (male C57Bl6 mice [5]; [16]): 95 ± 2.89%
- %MPE (male C57Bl6 mice [5]; i.v., 4 mg/kg, 30 min, 6-10 mice, p > 0.05 vs morphine): 100%
- analgesic effect compared with morphine (male C57Bl6 mice [5]; i.v., 4, 1 and 0.5 mg/kg, all time points, p > 0.05): no difference in the analgesic effect
- EC50 (DOR [6]): 0.00042 ± 2e-05 µM
- in vitro agonist profile (MOR/DOR): superagonist profile; also recorded: full MOR/DOR agonist with subnanomolar affinity and tissue bioactivity

Molecule: H-Dmt-D-Arg-Phe-Lys-NH2 [Dmt^1-DALDA]
- opioid analgesic potency [7]: potent opioid analgesic

Molecule: H-Dmt-NMe-D-Ala-Aba-Gly-NH2 [BVD03]
- EC50 (DOR [8]): 0.016 ± 0.009 nM
- EC50 (MOR [9]): 0.00174 ± 0.00034 nM
- factor of superior MOR binding vs BVD02 (MOR [10]): 4
- fold increase in DOR affinity vs BVD02 (DOR [11]): 26 fold
- Ki (MOR [12]): 0.015 ± 0.002 µM
- factor of superior MOR potency vs BVD02 (MOR [13]): 45
- Ki (DOR [14]): 0.005 ± 0.003 µM
- tolerance development after repetitive administration (male C57Bl6 mice [1]): leads to the development of tolerance
- %MPE (male C57Bl6 mice [1]; day 1, i.v., 4 mg/kg, 1 h): 68.78 ± 7.18%
- difference from morphine on first day (male C57Bl6 mice [1]; day 1, i.v., 4 mg/kg, 7-10 animals): significant differences (**p < 0.01) when compared to morphine
- %MPE (male C57Bl6 mice [1]; day 5, i.v., 4 mg/kg daily, 60 min): 18.14 ± 6.84%
- Ki (KOR; [17]): > 1000 µM
- %MPE (male C57Bl6 mice [5]; i.v., 0.25 mg/kg (similar at 4 and 0.5 mg/kg), 15 min): 35-40%
- %MPE (male C57Bl6 mice [5]; i.v., 0.25 mg/kg, 2 h, maximum level, ± SEM of 6-10 mice): 57.48 ± 17.57%
- %MPE (male C57Bl6 mice [5]; [18]): 88.41 ± 7.15%
- %MPE (male C57Bl6 mice [5]; i.v., 0.5 mg/kg, 120 min, ± SEM of 6-10 mice, p > 0.05 vs morphine): 84.29 ± 6.46%
- %MPE (male C57Bl6 mice [5]; i.v., 1 mg/kg, 60 min, ± SEM of 6-10 mice, p > 0.05 vs morphine): 89.21 ± 5.22%
- %MPE (male C57Bl6 mice [5]; i.v., 1 mg/kg, 120 min, ± SEM of 6-10 mice, p > 0.05 vs morphine): 86.69 ± 5.52%
- %MPE (male C57Bl6 mice [5]; i.v., 4 mg/kg, 60 min, ± SEM of 6-10 mice, p > 0.05 vs morphine): 68.78 ± 7.18%
- %MPE (male C57Bl6 mice [5]; i.v., 4 mg/kg, 120 min, ± SEM, vs morphine: BVD03 p < 0.05, SBCHM01 p > 0.05): 50.06 ± 6.84%
- antinociception after 2 hours (male C57Bl6 mice [5]; i.v., all doses except 0.25 mg/kg): drop in antinociception after 2 hours

Molecule: H-Tyr-D-Ala-Gly-Phe-Met-Pro-Leu-Trp-O-3',5'-Bn(CF3)2 [TY005, hybrid opioid-NK1 octapeptide ligand]
- antihyperalgesic tolerance [15]: development of antihyperalgesic tolerance could be suppressed; also recorded: inhibition of antihyperalgesic tolerance; also recorded: able to attenuate tolerance development

Molecule: H-[Dmt][dNMeA]F[Sar]-NH2 [BVD02, opioid tetrapeptide, "ring opened" analogue]
- EC50 (DOR [8]): 4400 ± 500 nM
- EC50 (MOR [9]): 0.079 ± 0.0065 nM
- Ki (MOR [12]): 0.06 ± 0.003 µM
- Ki (DOR [14]): 0.13 ± 0.005 µM
- Ki (KOR; [17]): > 1000 µM
- %MPE (male C57Bl6 mice [5]; [18]): 56.77 ± 13.57%
- %MPE (male C57Bl6 mice [5]; [16]): 74.77 ± 13.63%
- %MPE (male C57Bl6 mice [5]; i.v., 5 mg/kg, 15 min post-injection, 6-10 mice, unchanged within the next hour): 100%
- %MPE (male C57Bl6 mice [5]; i.v., 5 mg/kg, 2 h, ± SEM of 6-10 mice, p > 0.05): 96 ± 4%
- antinociceptive activity at 120 min compared to morphine (male C57Bl6 mice [5]; i.v., 1 and 0.5 mg/kg, 120 min, p < 0.001 vs morphine): dramatic reduction of activity
